Among the test systems are CAKI-1 renal; KM12 colon; MOLT-4 leukemia; OVCAR-4 ovarian; SF-539 CNS; SK-MEL-5 melanoma; SNB-19 CNS; UO-31 renal.
Common to all, as to assay: inhibition of tumour cell growth, NCI panel, 48 h

The structures appear in SMILES notation.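 Cells were grown in 96-well plates and exposed to each compound for 48 hours at five concentrations; endpoints were interpolated linearly between bracketing concentrations, or set to the highest concentration if not reached. Abbreviation: GI50, concentration required for 50% inhibition of growth. TGI is the concentration that stops growth completely.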

We go through 14 compounds from PubChem BioAssay (NCI).

For `N#CC(C(=O)/C(=N/N)C(C#N)c1ccccc1)c1ccccc1` (stereo not drawn), the TGI with CAKI-1 renal, in the test with KM12 colon, in the test on MOLT-4 leukemia, in the test on OVCAR-4 ovarian, with SF-539 CNS and in the test on SK-MEL-5 melanoma was more than 100 µM throughout. Further, the TGI with SNB-19 CNS and with UO-31 renal was more than 100 µM in each case.
Turning to `Clc1cc(Cc2cc(Cl)c(Cl)c3c2OCOC3)c2c(c1Cl)COCO2`, the TGI was 49.7 µM in the test on CAKI-1 renal; more than 100 µM with KM12 colon; more than 100 µM with MOLT-4 leukemia; 43.9 µM with OVCAR-4 ovarian; 52.3 µM with SF-539 CNS; more than 100 µM in the test on SK-MEL-5 melanoma. Further, the TGI in the test with SNB-19 CNS and in the test with UO-31 renal was more than 100 µM in each case.
On to `CN(C)c1ccc([O][Bi]([Cl])[Cl])cc1`, for which the GI50 is more than 100 µM in the test on CAKI-1 renal; more than 100 µM with KM12 colon; more than 100 µM with MOLT-4 leukemia; more than 100 µM with OVCAR-4 ovarian; more than 100 µM in the test with SF-539 CNS; 29.6 µM in the test on SK-MEL-5 melanoma. Further, the GI50 with SNB-19 CNS and with UO-31 renal was more than 100 µM each time. The TGI in the test with CAKI-1 renal, with KM12 colon, with MOLT-4 leukemia, in the test with OVCAR-4 ovarian, in the test with SF-539 CNS and in the test with SK-MEL-5 melanoma was more than 100 µM each time. Also, the TGI with SNB-19 CNS and with UO-31 renal was more than 100 µM each time.
With `CCOc1ccccc1NC(=O)CC1SC(=Nc2ccc([N+](=O)[O-])cc2)NC1=O` (stereo not drawn), the TGI was 37 µM in the test on KM12 colon; 60.3 µM with MOLT-4 leukemia; 29.8 µM in the test on OVCAR-4 ovarian; 30 µM with SK-MEL-5 melanoma; more than 100 µM in the test with SNB-19 CNS; 37.7 µM in the test with UO-31 renal.
Regarding `CC1(CO)OC(n2cc(C(=O)NC(=O)OCc3ccccc3)c(=O)[nH]c2=O)CC1O` (stereo not drawn), the TGI with CAKI-1 renal, in the test with KM12 colon, in the test with MOLT-4 leukemia, in the test with SF-539 CNS, with SK-MEL-5 melanoma and in the test on SNB-19 CNS was more than 100 µM each time. This compound also returned a TGI in the test on UO-31 renal of more than 100 µM.
In the case of `COc1cccc(NC(=O)/C(CC(=O)CC(c2ccccc2)c2c(O)c3ccccc3oc2=O)=N\NC(C)(C)C)c1OC` (stereo not drawn), the TGI in the test on CAKI-1 renal, in the test with KM12 colon, in the test with MOLT-4 leukemia, in the test with OVCAR-4 ovarian, in the test with SF-539 CNS and with SK-MEL-5 melanoma was more than 100 µM each time. Moreover, the TGI with SNB-19 CNS and in the test with UO-31 renal was more than 100 µM each time.
In the case of `CC(=O)OC[C@]1(O)CC[C@@]23CC1C[C@@H]2CCC1C(C)(C)CCC[C@@]13C` (stereo partly drawn), the TGI in the test with CAKI-1 renal is 32.4 µM; in the test on KM12 colon, 26.1 µM; in the test on MOLT-4 leukemia, 15.8 µM; with OVCAR-4 ovarian, 30 µM; in the test with SF-539 CNS, 30.4 µM; in the test on SK-MEL-5 melanoma, 28.2 µM. For the same compound, the TGI amounted to 27.6 µM in the test with SNB-19 CNS and 29.9 µM in the test with UO-31 renal.
For `CC1(c2cccc3ccccc23)OC(=O)c2ccccc21` (stereo not drawn), the TGI with CAKI-1 renal is 51 µM; in the test on KM12 colon it was more than 100 µM; in the test on MOLT-4 leukemia, 55.6 µM; with OVCAR-4 ovarian it was more than 100 µM; with SF-539 CNS it was 30.2 µM; in the test on SK-MEL-5 melanoma it was 26.2 µM. In addition, the TGI with SNB-19 CNS is more than 100 µM; in the test with UO-31 renal it was 78.7 µM.
As for `CC(=O)[CH-]C(=O)c1ccccc1.CC(=O)[CH-]C(=O)c1ccccc1.CC(C)CCCC(C)[C@H]1CCC2[C@@H]3CC=C4C[C@@H]([O-])CC[C@]4(C)C3CC[C@@]21C.CC[O-].[Ti+4]` (stereo partly drawn), the GI50 in the test on CAKI-1 renal is more than 100 µM; in the test with KM12 colon it was 39.6 µM; with MOLT-4 leukemia it was 16.4 µM; in the test on OVCAR-4 ovarian, 91.6 µM; in the test on SF-539 CNS, 34.1 µM; in the test on SK-MEL-5 melanoma, 35.2 µM. Also, the figures for the GI50 in the test on SNB-19 CNS and in the test on UO-31 renal were 32.6 µM and 29.4 µM, respectively. For the same compound, the TGI with CAKI-1 renal was more than 100 µM; in the test on KM12 colon, more than 100 µM; in the test on MOLT-4 leukemia, 63.1 µM; in the test on OVCAR-4 ovarian, more than 100 µM; in the test on SF-539 CNS, more than 100 µM; in the test with SK-MEL-5 melanoma, more than 100 µM. In addition, the TGI with SNB-19 CNS and in the test on UO-31 renal was more than 100 µM throughout.
With `COC(=O)/C([Se]c1c(C)cc(C)cc1C)=C(\[Se]c1c(C)cc(C)cc1C)C(=O)OC`, the TGI with CAKI-1 renal, with KM12 colon, in the test on MOLT-4 leukemia, in the test on OVCAR-4 ovarian, in the test with SK-MEL-5 melanoma and in the test on SNB-19 CNS was more than 100 µM in each case. Besides, the TGI in the test on UO-31 renal is more than 100 µM.
Regarding `O=C1C(Cl)=C(Nc2cccc(Cl)c2)C(=O)N1Cc1ccccc1Cl`, the GI50 in the test with CAKI-1 renal is 1.68 µM; with KM12 colon, 10.7 µM; in the test with MOLT-4 leukemia, 0.37 µM; with OVCAR-4 ovarian it was 12.4 µM; in the test with SF-539 CNS, 3.8 µM; in the test on SK-MEL-5 melanoma, 3.37 µM. For the same compound, in the test with UO-31 renal, the GI50 is 1.47 µM. In addition, the TGI in the test with CAKI-1 renal was 10.3 µM; in the test with KM12 colon, 49.6 µM; in the test on MOLT-4 leukemia, more than 100 µM; in the test on OVCAR-4 ovarian, 42.4 µM; in the test with SF-539 CNS, 15 µM; in the test with SK-MEL-5 melanoma it was 14.3 µM. The TGI with UO-31 renal is 5.01 µM.
On to `BrC1=CC=C2NC=CC3=CC=NC1C32` (stereo not drawn), for which the TGI is more than 100 µM with KM12 colon; 15.6 µM in the test on MOLT-4 leukemia; 97.3 µM with OVCAR-4 ovarian; more than 100 µM with SF-539 CNS; 45.4 µM with SK-MEL-5 melanoma; more than 75 µM with SNB-19 CNS. Moreover, in the test on UO-31 renal, the TGI is 51.3 µM.
Turning to `COc1cc(/C=C(\C#N)C(=O)c2ccccc2)ccc1O`, the TGI in the test on CAKI-1 renal, with KM12 colon, with MOLT-4 leukemia, with OVCAR-4 ovarian, with SF-539 CNS and with SK-MEL-5 melanoma was more than 100 µM in each case. Further, the TGI in the test with SNB-19 CNS and with UO-31 renal was more than 100 µM in each case.
For the compound `O=c1cc2ccccc2nn1Cc1cccc(Cl)c1`, the TGI in the test with CAKI-1 renal, in the test with KM12 colon, in the test on OVCAR-4 ovarian, in the test with SF-539 CNS, in the test with SK-MEL-5 melanoma and with SNB-19 CNS was more than 100 µM each time. Also, the TGI in the test with UO-31 renal is more than 100 µM.
